Like-named read-outs stand apart in the source and are kept apart here. Where a SMILES comes first, the peptide text is derived from it. The star is where a group is joined. NHPhenethyl = c1ccc(CCN*)cc1
Assays:
[1] = system: guinea pig ileum longitudinal muscle with adhering myenteric plexus; assay: Guinea pig ileum test (electrically stimulated longitudinal muscle, inhibition of twitch height); format: cell-based; conditions: ratio of IC50 of reference compound Met^5-enkephalin to IC50 of test compound in the same preparation, averaged (N=4); reference given as 100
Experimental: Adult male guinea pigs (Charles River, Hartley strain) weighing 300-500 g. are decapitated, and the terminal ileum is exposed by reflecting the overlying cecum, severed at the ileocecal juncture, and removed while cutting the mesenteric attachments to avoid excessive traction on the tissue. The ileum (about 30 cm. in length) is transferred to a beaker containing warm modified Krebs-Henseleit solution (118 mM sodium chloride, 4.75 mM potassium chloride, 2.54 mM calcium chloride, 1.19 mM potassium dihydrogen phosphate, 1.2 mM magnesium sulfate, 25 mM sodium bicarbonate, 11 mM glucose, 20 μM choline chloride and 0.125 μM pyrilamine maleate). The terminal (aboral) portion (about 10 cm. in length) is discarded, and segments (3-4 cm. in length) are cut from the remainder and gently slid onto a glass rod (5-6 mm. in diameter) and arranged so that the mesenteric attachment is in a straight line. A cotton swab moistened in the solution is then carefully used to separate the longitudinal muscle from the underlying circular muscle. The longitudinal muscle and adhering myenteric plexus is then gently removed from the remaining tissue with forceps.
Strips of this prepared longitudinal muscle are mounted in a double-jacketed organ bath (5 ml.) under tension (1.0 g.), connected to isometric transducers (Grass FT .03), bathed in the modified Krebs-Henseleit solution described above, aerated with oxygen-carbon dioxide (95:5) and maintained at 37° C.
Stimulators (Grass S-44) are set to deliver repetitive monophasic square wave field stimulation (supramaximal voltage, 0.10 Hz., 0.25 msec. duration) through platinum ring electrodes at the top and bottom of the bath. Regular contractions of the muscle, which result from electrically-induced liberation of acetylcholine from postganglionic parasympathetic nerves, are recorded on a polygraph (Grass model 5). Following tissue equilibration (45-60 min.) and repeated washing (every 10 min.) an aqueous solution of a reference or test compound is added to the bath in a microliter volume (1.25-250 μl) and reductions in muscle twitch height are recorded. More compound can be added […] first washing the preparation.
From the results a half-maximal inhibitory concentration (IC50) value for the compound is computed by regression analysis of a linear plot of logarithm of concentration against percent of inhibition of twitch height (probits). The ratio of the IC50 value of a reference compound to that of a test compound tested in the same preparation is the molar potency ratio. Usually four preparations are tested simultaneously by the same person (N=4), and the resulting four molar potency ratios are averaged. […]

opiate receptor = conditions: rat brain membranes, relative to morphine; cited from earlier work
rat = conditions: relative to morphine, cited from earlier work
mouse vas deferens = mouse vas deferens test; cited from earlier work
guinea pig ileum = guinea pig ileum test; cited from earlier work

N[C@@H](Cc1ccc(O)cc1)C(=O)N1CCC[C@H]1C(=O)NCCc1ccccc1 [Example 1, L-tyrosyl-N-(2-phenylethyl)-L-prolinamide] (H-Tyr-Pro-NHPhenethyl)
Average Molar Potency Ratio [1]: 117

N[C@@H](Cc1ccc(O)cc1)C(=O)N1CCC[C@H]1C(=O)NCCCc1ccccc1 [Example 2, L-tyrosyl-N-(3-phenylpropyl)-L-prolinamide]
Average Molar Potency Ratio [1]: 6

CN(CCCc1ccccc1)C(=O)[C@@H]1CCCN1C(=O)[C@@H](N)Cc1ccc(O)cc1 [Example 3, L-tyrosyl-N-methyl-N-(3-phenylpropyl)-L-prolinamide]
Average Molar Potency Ratio [1]: 9

C[C@@H](NC(=O)[C@@H](N)Cc1ccc(O)cc1)C(N)=O [H-Tyr-D-Ala-NH2]
times less affinity than morphine, opiate receptor binding (opiate receptor): 830 times
times less potent than morphine, tail flick test (rat; intravenously): greater than 10 times
times less potent than morphine, tail flick test (rat; intraventricularly): 200 times

C[C@@H](NC(=O)[C@@H](N)Cc1ccc(O)cc1)C(=O)NCCNCCc1ccccc1 [HTyrD-AlaNH(CH2)2 NH(CH2)2 Phenyl]
potency relative to Met-enkephalin (mouse vas deferens): < 1%
potency relative to Met-enkephalin (guinea pig ileum): < 1%

Met^5 -enkephalin [Met^5 --enkephalin]
Average Molar Potency Ratio [1]: 100
